Source: patent US20090099231A1, “3-Sulfonylamino-Pyrrolidine-2-One Derivatives as Factor Xa Inhibitors” (priority 2005, published 2009)
Counter-ions that a name gives are not always drawn.

What was measured:
[1] = target: human Factor Xa (Homo sapiens, UniProt P00742); assay: In vitro assay for inhibition of Factor Xa (fluorogenic assay, Rhodamine 110 bis-Cbz-glycylglycyl-L-arginine amide substrate); assay type: biochemical; conditions: for Ki: Ki=IC50/(1+[Substrate]/Km), i.e. IC50 divided by 1.6, human Factor Xa fluorogenic assay; for Factor Xa inhibitory activity: human Factor Xa 0.0003 U.ml-1, substrate 10 μM, 15 min preincubation, room temperature, pH 7.4
Chain of human Factor Xa (P00742 235-488 limits assumed): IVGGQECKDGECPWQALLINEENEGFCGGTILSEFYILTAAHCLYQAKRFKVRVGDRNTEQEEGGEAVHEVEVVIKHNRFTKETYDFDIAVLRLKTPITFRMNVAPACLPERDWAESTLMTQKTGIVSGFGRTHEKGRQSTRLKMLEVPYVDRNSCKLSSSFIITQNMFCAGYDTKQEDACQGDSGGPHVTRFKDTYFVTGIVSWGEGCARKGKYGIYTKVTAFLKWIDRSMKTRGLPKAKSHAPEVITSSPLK
Chain of human Factor Xa (P00742 41-179 partner limits assumed): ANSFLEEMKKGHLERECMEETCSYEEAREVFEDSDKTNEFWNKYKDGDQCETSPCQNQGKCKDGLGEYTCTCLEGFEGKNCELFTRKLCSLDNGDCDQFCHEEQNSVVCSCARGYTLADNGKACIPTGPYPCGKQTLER
Description: Compounds of the present invention were tested for their Factor Xa inhibitory activity as determined in vitro by their ability to inhibit human Factor Xa in a fluorogenic assay, using Rhodamine 110, bis-Cbz-glycylglycyl-L-arginine amide as the fluorogenic substrate. Compounds were diluted from a 10 mM stock solution in dimethylsulfoxide at appropriate concentrations. Assay was performed at room temperature using buffer consisting of: 50 mM Tris-HCl, 150 mM NaCl, 5 mM CaCl2, pH 7.4 containing human Factor Xa (final concentration of 0.0003 U.ml-1). Compound and enzyme were preincubated for 15 min prior to addition of the substrate (final concentration of 10 μM). The reaction was stopped after 3 hrs with the addition of H-D-Phe-Pro-Arg-Chloromethylketone. An LJL-Analyst fluorimeter was used to monitor fluorescence with 485 nm excitation/535 nm emission. To obtain IC50 values the data were analysed using ActivityBase® and XLfit®.
Ki=IC50/(1+[Substrate]/Km)
The Ki value for the above assay can be obtained by dividing the IC50 value by 1.6.

[2] = tested on: human plasma; assay: Measurement of Prothrombin Time (PT), time to clot formation in plasma; conditions: pooled plasma from 4 donors, test compound 0.03 to 100 uM, Thromboplastin C Plus
Description: Blood was collected into a sodium citrate solution (ratio 9:1) to give a final concentration of 0.38% citrate. Plasma was generated by centrifugation of citrated blood samples at 1200×g for 20 min at 4° C. and stored at −20° C. until use.
The PT test was performed using the BCS Coagulation Analyzer (Dade Behring). For assay, 50 ul of plasma containing test compound at concentrations ranging from 0.03 to 100 uM (made from a 100 uM stock containing 1% DMSO in plasma) was combined with 100 ul of Thromboplastin C Plus (Dade Behring). Upon addition of the reagents, absorbance at 405 nm was monitored and time to clot formation is determined (normal range for human plasma is 10.6-12.4 seconds).

| SMILES | Ki [1] [nM] | Factor Xa inhibitory activity [1] | activity in prothrombin time (PT) test [2] |
| --- | --- | --- | --- |
| Cl.O=C1[C@@H](NS(=O)(=O)c2cc3ccc(Cl)cc3s2)CCN1c1cc2c(cc1F)CNCC2 [Example 21, 6-Chloro-N-[(3S)-1-(7-fluoro-1,2,3,4-tetrahydro-6-isoquinolinyl)-2-oxo-3-pyrrolidinyl]-1-benzothiophene-2-sulfonamide hydrochloride] | < 10 | exhibit Factor Xa inhibitory activity | exhibit activity |
| Cl.O=C1[C@@H](NS(=O)(=O)/C=C/c2ccc(Cl)s2)CCN1c1cc2c(cc1F)CNCC2 [Example 22, (E)-2-(5-Chloro-2-thienyl)-N-[(3S)-1-(7-fluoro-1,2,3,4-tetrahydro-6-isoquinolinyl)-2-oxo-3-pyrrolidinyl]ethenesulfonamide hydrochloride] | – | exhibit Factor Xa inhibitory activity | exhibit activity |
| Cl.O=C1[C@@H](NS(=O)(=O)c2ccc3c(Cl)c[nH]c3c2)CCN1c1cc2c(cc1F)CNCC2 [Example 23, 3-Chloro-N-[(3S)-1-(7-fluoro-1,2,3,4-tetrahydro-6-isoquinolinyl)-2-oxo-3-pyrrolidinyl]-1H-indole-6-sulfonamide hydrochloride] | – | exhibit Factor Xa inhibitory activity | exhibit activity |
| Cl.O=C1[C@@H](NS(=O)(=O)c2ccc3cc(Cl)ccc3c2)CCN1c1cc2c(cc1Cl)CNCC2 [Example 24, 6-Chloro-N-[(3S)-1-(7-chloro-1,2,3,4-tetrahydro-6-isoquinolinyl)-2-oxo-3-pyrrolidinyl]-2-naphthalenesulfonamide hydrochloride] | – | exhibit Factor Xa inhibitory activity | exhibit activity |
| Cl.O=C1[C@@H](NS(=O)(=O)/C=C/c2ccc(Cl)s2)CCN1c1cc2c(cc1Cl)CNCC2 [Example 25, (E)-N-[(3S)-1-(7-Chloro-1,2,3,4-tetrahydro-6-isoquinolinyl)-2-oxo-3-pyrrolidinyl]-2-(5-chloro-2-thienyl)ethenesulfonamide hydrochloride] | – | exhibit Factor Xa inhibitory activity | exhibit activity |
| Cl.O=C1[C@@H](NS(=O)(=O)c2ccc3c(Cl)c[nH]c3c2)CCN1c1cc2c(cc1Cl)CNCC2 [Example 26, 3-Chloro-N-[(3S)-1-(7-chloro-1,2,3,4-tetrahydro-6-isoquinolinyl)-2-oxo-3-pyrrolidinyl]-1H-indole-6-sulfonamide hydrochloride] | < 10 | exhibit Factor Xa inhibitory activity | exhibit activity |
| Cc1cc2c(cc1N1CC[C@H](NS(=O)(=O)c3ccc4cc(Cl)ccc4c3)C1=O)CCNC2.Cl [Example 27, 6-Chloro-N-[(3S)-1-(7-methyl-1,2,3,4-tetrahydro-6-isoquinolinyl)-2-oxo-3-pyrrolidinyl]-2-naphthalenesulfonamide hydrochloride] | – | exhibit Factor Xa inhibitory activity | exhibit activity |
| Cc1cc2c(cc1N1CC[C@H](NS(=O)(=O)/C=C/c3ccc(Cl)s3)C1=O)CCNC2.Cl [Example 28, (E)-2-(5-Chloro-2-thienyl)-N-[(3S)-1-(7-methyl-1,2,3,4-tetrahydro-6-isoquinolinyl)-2-oxo-3-pyrrolidinyl]ethenesulfonamide hydrochloride] | – | exhibit Factor Xa inhibitory activity | exhibit activity |
| Cc1cc2c(cc1N1CC[C@H](NS(=O)(=O)c3ccc4c(Cl)c[nH]c4c3)C1=O)CCNC2.Cl [Example 29, 3-Chloro-N-[(3S)-1-(7-methyl-1,2,3,4-tetrahydro-6-isoquinolinyl)-2-oxo-3-pyrrolidinyl]-1H-indole-6-sulfonamide hydrochloride] | – | exhibit Factor Xa inhibitory activity | exhibit activity |
| CC(C)N1CCc2cc(N3CC[C@H](NS(=O)(=O)c4ccc5cc(Cl)ccc5c4)C3=O)ccc2C1 [Example 30, 6-Chloro-N-{(3S)-1-[2-(1-methylethyl)-1,2,3,4-tetrahydro-6-isoquinolinyl]-2-oxo-3-pyrrolidinyl}-2-naphthalenesulfonamide] | < 10 | exhibit Factor Xa inhibitory activity | exhibit activity |
| CC1NCCc2cc(N3CC[C@H](NS(=O)(=O)c4ccc5cc(Cl)ccc5c4)C3=O)ccc21 (stereo partly drawn) [Example 31, 6-Chloro-N-[(3S)-1-(1-methyl-1,2,3,4-tetrahydro-6-isoquinolinyl)-2-oxo-3-pyrrolidinyl]-2-naphthalenesulfonamide hydrochloride] | < 10 | exhibit Factor Xa inhibitory activity | exhibit activity |
| CC1NCCc2cc(N3CC[C@H](NS(=O)(=O)/C=C/c4ccc(Cl)s4)C3=O)ccc21 (stereo partly drawn) [Example 32, (E)-2-(5-Chloro-2-thienyl)-N-[(3S)-1-(1-methyl-1,2,3,4-tetrahydro-6-isoquinolinyl)-2-oxo-3-pyrrolidinyl]ethenesulfonamide hydrochloride] | < 10 | exhibit Factor Xa inhibitory activity | exhibit activity |
| CC1Cc2cc(N3CC[C@H](NS(=O)(=O)/C=C/c4ccc(Cl)s4)C3=O)ccc2CN1 (stereo partly drawn) [Example 33, (E)-2-(5-Chloro-2-thienyl)-N-[(3S)-1-(3-methyl-1,2,3,4-tetrahydro-6-isoquinolinyl)-2-oxo-3-pyrrolidinyl]ethenesulfonamide hydrochloride] | < 10 | exhibit Factor Xa inhibitory activity | exhibit activity |
| O=C1[C@@H](NS(=O)(=O)c2cc3cc(Cl)ccc3[nH]2)CCN1c1ccc2c(c1)CCNC2.O=CO [Example 36, 5-Chloro-N-[(3S)-2-oxo-1-(1,2,3,4-tetrahydro-6-isoquinolinyl)-3-pyrrolidinyl]-1H-indole-2-sulfonamide] | < 10 | exhibit Factor Xa inhibitory activity | exhibit activity |
| CN1CCc2cc(N3CC[C@H](NS(=O)(=O)/C=C/c4ccc(Cl)cc4)C3=O)ccc2C1.O=CO [Example 37, (E)-2-(4-Chlorophenyl)-N-[(3S)-1-(2-methyl-1,2,3,4-tetrahydro-6-isoquinolinyl)-2-oxo-3-pyrrolidinyl]ethenesulfonamide formate] | – | exhibit Factor Xa inhibitory activity | exhibit activity |
| CC1Cc2cc(N3CC[C@H](NS(=O)(=O)c4ccc5cc(Cl)ccc5c4)C3=O)ccc2CN1.O=CO (stereo partly drawn) [Example 38, 6-Chloro-N-[(3S)-1-(3-methyl-1,2,3,4-tetrahydro-6-isoquinolinyl)-2-oxo-3-pyrrolidinyl]-2-naphthalenesulfonamide formate] | – | exhibit Factor Xa inhibitory activity | exhibit activity |
